Results reported in article PMC9270327 (Communications Biology, 2022).
Where a name gives a salt, the structure may show the parent alone. Read-outs that look alike come from different tables or passages of the source.

Tests used:
[1] = system: SARS-CoV-2 Alpha (B.1.1.7), Caco-2 cells; format: cell-based
[2] = target: TMPRSS2 (Homo sapiens, UniProt O15393); experiment: Cell culture medium stability: residual TMPRSS2 inhibition after incubation in medium
Protocol: The activity of the compounds against the recombinant human enzymes was determined in enzyme inhibition assays. […] The measurements were performed on a Tecan infinite® M1000 and the fluorescence intensity was measured by exciting the AMC fluorophore at 380 nm wavelength and recording emission at 460 nm wavelength. […] Fluorescence intensities and absorption were measured every 2 min for 2 h or as endpoint after 2 h. […] To determine the IC50 values, the concentration-response data were plotted with the program GraphPad prism version 8.4.2 (San Diego, California) and a nonlinear regression fit with the equation [Inhibitor] vs. normalized response was applied. The inhibitory constant Ki was calculated from the IC50 values using the Cheng–Prusoff equation (Ki = IC50/[S]/KM) for competitive reversible inhibitors[66].
The stability of the inhibitors was measured according to a modified procedure from ref. [67]. […] At indicated timepoints, 100 µL samples were taken and mixed with 200 µL of ethanol to precipitate proteins. […] The supernatant was aspirated and analyzed using analytical HPLC. The residual inhibitory constants Ki after incubation was assessed by mixing serial dilutions of the inhibitor with recombinant TMPRSS2 as described above.
were mixed with recombinant TMPRSS2, followed by the addition of the fluorogenic reference
Shown are the means ± SD of n=1 experiment performed in triplicates.

[3] = target: T1, TMPRSS2 expressed in HEK293T cells (Homo sapiens, UniProt O15393); experiment: Inhibition of cellular TMPRSS2 activity on HEK293T cells transiently expressing TMPRSS2; format: cell-based; details: 2 h, corrected for mock-transfected cells
T1 construct: host or cells: HEK293T (ATCC)
Protocol: In total, 10,000 Caco-2 cells (ATCC) in 100 µL EMEM medium supplemented with 10% FBS, 100 U/mL penicillin, […] streptomycin, and 2 mM glutamine (all Invitrogen, Germany) were seeded per well in a 96-well plate and incubated at 37 °C for 4 days until full confluency of the cells. The cells were washed two times with PBS and EMEM medium without FBS was added. […] The fluorescence intensity was measured as described above. In all, 20,000 HEK293T cells (ATCC) were seeded in 100 µL DMEM supplemented with 10% FBS, 100 U/mL penicillin, […] streptomycin, and 2 mM glutamine. […] […] […] Fluorescence intensity was measured after 2 h at 37 °C as described above.

[4] = system: lentiviral pseudoparticles carrying SARS-CoV-2 Delta (B.1.617.2) spike, Caco-2 cells; format: cell-based; details: for SARS-CoV-2 spike driven entry, Mean (0 nM = 100): Fig. 5d
[5] = target: T2, recombinant human thrombin (Homo sapiens, UniProt P00734); experiment: Enzyme inhibition assay with purified thrombin (Ki, dose-response); format: biochemical; details: normalized
T2 construct: purchased R&D Systems (Minneapolis, MN, USA)
Source text: Recombinant human TMPRSS2 was purchased from Creative BioMart (New York, USA) or LSBio (Seattle, USA), factor Xa was obtained from Bio-Techne GmbH (Wiesbaden, Germany). Recombinant human thrombin and matriptase protein were purchased from R&D Systems (Minneapolis, MN, USA).

[6] = target: T3, recombinant human matriptase (Homo sapiens, UniProt Q9Y5Y6); experiment: Enzyme inhibition assay with purified matriptase (Ki, dose-response); format: biochemical; details: for matriptase activity, Mean (Fig. 2b): normalized, 0 nM = 100
T3 construct: purchased R&D Systems (Minneapolis, MN, USA)
T3 sequence (Q9Y5Y6 1-855): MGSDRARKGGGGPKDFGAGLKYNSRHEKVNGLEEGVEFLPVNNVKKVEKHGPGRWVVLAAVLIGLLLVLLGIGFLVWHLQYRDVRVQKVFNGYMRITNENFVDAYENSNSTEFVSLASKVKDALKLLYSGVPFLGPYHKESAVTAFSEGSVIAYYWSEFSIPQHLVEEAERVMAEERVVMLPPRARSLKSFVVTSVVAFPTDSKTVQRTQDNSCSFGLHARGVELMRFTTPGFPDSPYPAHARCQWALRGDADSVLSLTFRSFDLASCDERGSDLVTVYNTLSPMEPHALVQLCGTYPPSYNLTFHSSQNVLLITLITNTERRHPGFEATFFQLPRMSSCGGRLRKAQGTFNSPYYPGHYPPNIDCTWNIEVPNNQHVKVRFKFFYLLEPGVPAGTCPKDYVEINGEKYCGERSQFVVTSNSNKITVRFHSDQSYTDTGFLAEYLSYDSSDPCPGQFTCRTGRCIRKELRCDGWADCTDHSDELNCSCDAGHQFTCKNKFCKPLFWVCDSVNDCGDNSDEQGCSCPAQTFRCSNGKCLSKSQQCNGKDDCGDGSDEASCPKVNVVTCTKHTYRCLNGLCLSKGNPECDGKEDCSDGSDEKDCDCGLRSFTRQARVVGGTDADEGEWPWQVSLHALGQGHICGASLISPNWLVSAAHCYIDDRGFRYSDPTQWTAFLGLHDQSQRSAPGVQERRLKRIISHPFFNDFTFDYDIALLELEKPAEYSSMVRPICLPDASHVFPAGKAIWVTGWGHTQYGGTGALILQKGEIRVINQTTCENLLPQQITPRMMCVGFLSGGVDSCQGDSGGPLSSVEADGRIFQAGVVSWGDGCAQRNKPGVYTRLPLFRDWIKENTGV

T1 sequence (O15393 whole entry): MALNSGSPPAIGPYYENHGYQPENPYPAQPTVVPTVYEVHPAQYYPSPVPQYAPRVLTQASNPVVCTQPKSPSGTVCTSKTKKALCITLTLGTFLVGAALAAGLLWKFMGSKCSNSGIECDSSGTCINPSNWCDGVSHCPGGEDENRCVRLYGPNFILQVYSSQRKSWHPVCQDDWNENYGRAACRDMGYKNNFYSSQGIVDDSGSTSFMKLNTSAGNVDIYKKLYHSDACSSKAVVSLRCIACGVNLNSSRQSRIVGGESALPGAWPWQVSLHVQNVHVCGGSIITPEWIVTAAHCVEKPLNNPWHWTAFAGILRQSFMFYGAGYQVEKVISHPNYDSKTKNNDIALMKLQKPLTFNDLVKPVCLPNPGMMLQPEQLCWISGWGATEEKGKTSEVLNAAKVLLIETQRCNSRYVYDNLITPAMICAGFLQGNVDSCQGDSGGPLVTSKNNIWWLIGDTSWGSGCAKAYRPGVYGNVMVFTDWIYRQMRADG
TMPRSS2, sequence (O15393 whole entry): as above

CN(C)C(=O)COC(=O)Cc1ccc(OC(=O)c2ccc(NC(=N)N)cc2)cc1 [CM, camostat mesylate, reference compound]
IC50 ([1]; read-out: IC50 SARS-CoV-2 Alpha): 16.4 µM
IC50 ([1]; read-out: IC50 SARS-CoV-2 Alpha (text)): 16.4 µM
Residual TMPRSS2 activity, Mean (0 nM = 100) ([2]; inhibitor 0.0167 nM, 0 min in cell culture medium): 104.51
Residual TMPRSS2 activity, Mean (0 nM = 100) ([2]; inhibitor 0.0167 nM, 30 min in cell culture medium): 108.071
Residual TMPRSS2 activity, Mean (0 nM = 100) ([2]; inhibitor 0.0167 nM, 60 min in cell culture medium): 94.6283
Residual TMPRSS2 activity, Mean (0 nM = 100) ([2]; inhibitor 0.0167 nM, 120 min in cell culture medium): 101.99
Residual TMPRSS2 activity, Mean (0 nM = 100) ([2]; inhibitor 0.0167 nM, 24 h in cell culture medium): 104.987
Residual TMPRSS2 activity, Mean (0 nM = 100) ([2]; inhibitor 0.0167 nM, 10 d in cell culture medium): 98.7798
Residual TMPRSS2 activity, Mean (0 nM = 100) ([2]; inhibitor 0.0167 nM, positive ctrl): 112.676
Residual TMPRSS2 activity, Mean (0 nM = 100) ([2]; inhibitor 0.167 nM, 0 min in cell culture medium): 93.733
Residual TMPRSS2 activity, Mean (0 nM = 100) ([2]; inhibitor 0.167 nM, 30 min in cell culture medium): 95.4083
Residual TMPRSS2 activity, Mean (0 nM = 100) ([2]; inhibitor 0.167 nM, 60 min in cell culture medium): 77.5396
Residual TMPRSS2 activity, Mean (0 nM = 100) ([2]; inhibitor 0.167 nM, 120 min in cell culture medium): 90.8064
Residual TMPRSS2 activity, Mean (0 nM = 100) ([2]; inhibitor 0.167 nM, 24 h in cell culture medium): 102.761
Residual TMPRSS2 activity, Mean (0 nM = 100) ([2]; inhibitor 0.167 nM, 10 d in cell culture medium): 99.2067
Residual TMPRSS2 activity, Mean (0 nM = 100) ([2]; inhibitor 0.167 nM, positive ctrl): 96.1679
Residual TMPRSS2 activity, Mean (0 nM = 100) ([2]; inhibitor 1.665 nM, 0 min in cell culture medium): 49.6948
Residual TMPRSS2 activity, Mean (0 nM = 100) ([2]; inhibitor 1.665 nM, 30 min in cell culture medium): 47.8364
Residual TMPRSS2 activity, Mean (0 nM = 100) ([2]; inhibitor 1.665 nM, 60 min in cell culture medium): 26.9293
Residual TMPRSS2 activity, Mean (0 nM = 100) ([2]; inhibitor 1.665 nM, 120 min in cell culture medium): 28.8645
Residual TMPRSS2 activity, Mean (0 nM = 100) ([2]; inhibitor 1.665 nM, 24 h in cell culture medium): 90.2986
Residual TMPRSS2 activity, Mean (0 nM = 100) ([2]; inhibitor 1.665 nM, 10 d in cell culture medium): 96.8623
Residual TMPRSS2 activity, Mean (0 nM = 100) ([2]; inhibitor 1.665 nM, positive ctrl): 28.3437
Residual TMPRSS2 activity, Mean (0 nM = 100) ([2]; inhibitor 16.65 nM, 0 min in cell culture medium): 3.839
Residual TMPRSS2 activity, Mean (0 nM = 100) ([2]; inhibitor 16.65 nM, 30 min in cell culture medium): 20.3269
Residual TMPRSS2 activity, Mean (0 nM = 100) ([2]; inhibitor 16.65 nM, 60 min in cell culture medium): 1.937
Residual TMPRSS2 activity, Mean (0 nM = 100) ([2]; inhibitor 16.65 nM, 120 min in cell culture medium): 2.211
Residual TMPRSS2 activity, Mean (0 nM = 100) ([2]; inhibitor 16.65 nM, 24 h in cell culture medium): 42.5007
Residual TMPRSS2 activity, Mean (0 nM = 100) ([2]; inhibitor 16.65 nM, 10 d in cell culture medium): 95.3646
Residual TMPRSS2 activity, Mean (0 nM = 100) ([2]; inhibitor 16.65 nM, positive ctrl): 3.3573
Residual TMPRSS2 activity, Mean (0 nM = 100) ([2]; inhibitor 166.5 nM, 0 min in cell culture medium): -1.499
Residual TMPRSS2 activity, Mean (0 nM = 100) ([2]; inhibitor 166.5 nM, 30 min in cell culture medium): -2.333
Residual TMPRSS2 activity, Mean (0 nM = 100) ([2]; inhibitor 166.5 nM, 60 min in cell culture medium): -2.406
Residual TMPRSS2 activity, Mean (0 nM = 100) ([2]; inhibitor 166.5 nM, 120 min in cell culture medium): -2.5978
Residual TMPRSS2 activity, Mean (0 nM = 100) ([2]; inhibitor 166.5 nM, 24 h in cell culture medium): 5.263
Residual TMPRSS2 activity, Mean (0 nM = 100) ([2]; inhibitor 166.5 nM, 10 d in cell culture medium): 97.9296
Residual TMPRSS2 activity, Mean (0 nM = 100) ([2]; inhibitor 166.5 nM, positive ctrl): -2.042
Residual TMPRSS2 activity, Mean (0 nM = 100) ([2]; inhibitor 1665 nM, 0 min in cell culture medium): -4.334
Residual TMPRSS2 activity, Mean (0 nM = 100) ([2]; inhibitor 1665 nM, 30 min in cell culture medium): -4.917
Residual TMPRSS2 activity, Mean (0 nM = 100) ([2]; inhibitor 1665 nM, 60 min in cell culture medium): -4.534
Residual TMPRSS2 activity, Mean (0 nM = 100) ([2]; inhibitor 1665 nM, 120 min in cell culture medium): -4.182
Residual TMPRSS2 activity, Mean (0 nM = 100) ([2]; inhibitor 1665 nM, 24 h in cell culture medium): 0.9545
Residual TMPRSS2 activity, Mean (0 nM = 100) ([2]; inhibitor 1665 nM, 10 d in cell culture medium): 88.1928
Residual TMPRSS2 activity, Mean (0 nM = 100) ([2]; inhibitor 1665 nM, positive ctrl): -4.2458
normalized fluorescence intensity, HEK293T TMPRSS2, Mean (Fig. 4b) ([3]; 0.5 nM): 47.42
normalized fluorescence intensity, HEK293T TMPRSS2, Mean (Fig. 4b) ([3]; 5 nM): 43.185
normalized fluorescence intensity, HEK293T TMPRSS2, Mean (Fig. 4b) ([3]; 50 nM): 9.45
normalized fluorescence intensity, HEK293T TMPRSS2, Mean (Fig. 4b) ([3]; 500 nM): 8.435
normalized fluorescence intensity, HEK293T TMPRSS2, Mean (Fig. 4b) ([3]; 5000 nM): 0.32
normalized fluorescence intensity, HEK293T TMPRSS2, Mean (Fig. 4b) ([3]; 50000 nM): -3.52
IC50 ([4]; Caco-2 cells, luciferase 2 days post transduction, read-out: IC50 pseudotyped lentivirus Delta): 0.0855 µM
SARS-CoV-2 spike driven entry, Mean (0 nM = 100) ([4]; compound 3.2 nM): 83.3031
SARS-CoV-2 spike driven entry, Mean (0 nM = 100) ([4]; compound 16 nM): 73.1168
SARS-CoV-2 spike driven entry, Mean (0 nM = 100) ([4]; compound 80 nM): 52.0145
SARS-CoV-2 spike driven entry, Mean (0 nM = 100) ([4]; compound 400 nM): 29.5018
SARS-CoV-2 spike driven entry, Mean (0 nM = 100) ([4]; compound 2000 nM): 11.0315
SARS-CoV-2 spike driven entry, Mean (0 nM = 100) ([4]; compound 10000 nM): 3.058
SARS-CoV-2 spike driven entry, Mean (0 nM = 100) ([4]; compound 50000 nM): 0.6818
thrombin activity, Mean (Fig. 2c) ([5]; 0.01 nM): 98.2939
thrombin activity, Mean (Fig. 2c) ([5]; 0.02 nM, 0 nM = 100): 99.8688
thrombin activity, Mean (Fig. 2c) ([5]; 0.04 nM, 0 nM = 100): 100.525
thrombin activity, Mean (Fig. 2c) ([5]; 0.2 nM, 0 nM = 100): 103.675
thrombin activity, Mean (Fig. 2c) ([5]; 2 nM, 0 nM = 100): 103.806
thrombin activity, Mean (Fig. 2c) ([5]; 20 nM, 0 nM = 100): 105.906
thrombin activity, Mean (Fig. 2c) ([5]; 10000 nM, 0 nM = 100): 73.8845
thrombin activity, Mean (Fig. 2c) ([5]; 100000 nM, 0 nM = 100): 23.2283
matriptase activity, Mean (Fig. 2b) ([6]; 0.05 nM): 100.491
matriptase activity, Mean (Fig. 2b) ([6]; 0.1 nM): 98.1997
matriptase activity, Mean (Fig. 2b) ([6]; 0.2 nM): 86.1702
matriptase activity, Mean (Fig. 2b) ([6]; 1 nM): 58.838
matriptase activity, Mean (Fig. 2b) ([6]; 10 nM): 4.828
matriptase activity, Mean (Fig. 2b) ([6]; 1000 nM): 0.2455
matriptase activity, Mean (Fig. 2b) ([6]; 50000 nM): 0.08183
matriptase activity, Mean (Fig. 2b) ([6]; 500000 nM): 0.1637
Ki ([6]; 30 min preincubation, substrate Boc-Gln-Ala-Arg-AMC): 0.0006 µM
